88 molecules from a melting point compilation (Tetko et al.; mined from patent text by program, amines drawn as free bases though some values may be those of a salt) can be followed below.

The melting point is the temperature, or range, at which the solid turns liquid.

For `NS(=O)(=O)c1ccc(-n2cnc3c(-c4ccc(C(F)(F)F)cc4F)ncnc32)cc1`, the melting point lay within 244 to 245 °C.
To `O=C(O)CCC(=O)Nc1cc(C(=O)O)cc([N+](=O)[O-])c1` belongs 220 to 221 °C.
The molecule `O=C(O)CCCCn1c(=O)c2cc(O)ccc2n(CCCCN2CCC(OC(c3ccccc3)c3ccccc3)CC2)c1=O` returned a melting point of 234 to 236 °C.
On to `COCCOc1cc(NS(=O)(=O)c2ccccn2)c2[nH]c(C3=NCC(CN4CCS(=O)CC4)S3)cc2c1` (stereo not drawn), for which the melting point lay within 235 to 236 °C.
Regarding `COC1=CC23CCN(C=O)C(Cc4cccc(OC)c42)C3CC1` (stereo not drawn), the melting point lay within 169 to 172 °C.
Regarding `CN(C)S(=O)(=O)NC1CCC(CCN2CCC(c3cccc4c3CCO4)CC2)CC1` (stereo not drawn), the melting point came out at 122 °C.
To `CCCCCCCCC(=O)OC(C)c1ccc(-c2ccc(OC)cc2)cc1` (single isomer, unassigned; (+)) belongs 59 to 60 °C; to `O=C(O)c1cc(Br)sc1Cl`, 159 to 160 °C.
`N#Cc1c(N)ncc2c1-c1ccccc1C(c1ccc(Cl)cc1Cl)C2` (stereo not drawn) showed a melting point of 282 to 284 °C.
`COC(=O)C(=O)CC(=O)c1ccccn1` had a melting point of 86 to 87 °C.
`CN1CCN(C(=O)c2ccc(-c3ccc4nnn(Cc5ccc6ncccc6c5)c4n3)cc2)CC1` registered a melting point of 156 to 158 °C.
With `CC(=O)n1ccc(-c2ccc(C(=O)N3Cc4cccn4Cc4ccccc43)cc2)n1`, the melting point was 192 to 194 °C.
`O=C1c2ccccc2CN1C1CCNCC1` returned a melting point of 144 to 146 °C.
Turning to `CC(C)(Oc1ccc(CCC(=O)c2ccc(-c3ccc(C(F)(F)F)cc3)s2)cc1)C(=O)O`, the melting point is 154 to 155 °C.
`CCCCc1ccc(C(O)=S)nc1` showed a melting point of 99 °C.
For the molecule `CCCCCCCCCCCCCCOc1cccc(CC(=O)Nc2cccc(CBr)c2)c1`, the melting point lay in the range of 104 to 106 °C.
Then `COC(=O)C(CO)N(Cc1ccccc1N)S(=O)(=O)c1ccc(OC)cc1` (stereo not drawn), with 138 to 140 °C; and `COc1ccc(-c2nc(SCC=O)sc2-c2ccc(OC)cc2)cc1`, with 75 to 76 °C.
`CC(C)OP(=O)(OC(C)C)c1nc(N)nc(P(=O)(OC(C)C)OC(C)C)n1` registered a melting point of 123 to 124 °C.
`COc1ccccc1C(=O)N1CCCC2=C1CCc1cc(Cl)ccc12` yielded a melting point of 139 °C.
`CCOC(=O)c1cnc2ccc(C#N)cc2c1NCc1ccc(OC)c(Cl)c1` came in with a melting point of 161 to 162 °C.
`CCCCCCCC(=O)NCc1ccsc1` returned a melting point of 71 to 72 °C.
Molecule `COC(=O)C(CCSC)N(C(=O)OC(C)(C)C)C(=O)c1ccc(N)c2ccccc12` (stereo not drawn) returned a melting point of 131 to 132 °C.
`COc1cc(COc2nn(-c3ccccc3)cc2C(=O)O)ccc1OCc1nc(-c2ccco2)oc1C` showed a melting point of 184 to 185 °C.
In the case of `C#CC(CC)(CC)NC(N)=O`, the melting point came out at 108 °C.
`CNC(=O)CC1(C)OCCn2c1c(C)c1ccccc12` (stereo not drawn) had a melting point of 131 to 133 °C.
Molecule `O=C(O)Cc1ccc2noc(-c3ccccc3)c2c1` registered a melting point of 173 to 174 °C.
Molecule `C=CC(=O)Oc1c(Br)c(Br)c(Br)c(Br)c1OC(=O)C=C` came in with a melting point of 135 to 137 °C.
Then `CC(C)Cn1c(=O)n(C)c(=O)c2c(Sc3cccs3)c(C(=O)c3cccnc3)sc21`, with 111 to 115 °C; and `CCC1(C(=O)C(C(O)C(Cl)(Cl)Cl)n2cncn2)CCCC1` (stereo not drawn), with 194 to 196 °C; and `Cn1cc(Nc2ccc([N+](=O)[O-])cc2[N+](=O)[O-])cn1`, with 149 °C.
Turning to `O=C(O)CCC(=O)c1ccc(N2CCCCC2)cc1`, the melting point is 150 to 151 °C.
Consider `O=C1C2=C(CCCC2)C(=O)N1c1cc(O)ccc1F`, for which the melting point came to 165 °C.
For `Cc1cc(-c2cccc(NC(=O)N[C@@H]3c4cc(C#N)ccc4OC(C)(C)[C@H]3O)c2)no1`, the melting point lay within 110 to 120 °C.
`COC(=O)c1ccc(CNC(=O)c2[nH]c(-c3ccoc3)cc2-c2ccc(O)cc2)cc1` yielded a melting point of 223 to 224 °C.
As to `O=C(O)c1ccnc(NC(=O)C(CS)Cc2ccccc2)c1` (stereo not drawn), the melting point is 234 to 236 °C.
To `COc1cccc(N2CCN(Cc3cn4cc(Cl)ccc4n3)CC2)c1` belongs 132 to 134 °C; to `Clc1ccc2c(c1)oc1cc(OCCn3ccnc3)ccc12`, 150 to 151 °C.
Consider `CNc1nc(N)nc(-c2ccccc2)c1-c1ccc(=O)n(C(C)C)n1`, for which the melting point was in the range of 268 to 270 °C.
To `Clc1ccc(C(Cn2cncn2)OCc2ccccc2Cl)c(Cl)c1` (stereo not drawn) belongs 106 °C; to `O=C1C2=C(C=CCN2)CCc2ccc(F)cc21`, 78 to 81 °C; to `CCOC(=O)C1=C(COCc2nnn(CCNS(C)(=O)=O)n2)NC(C)=C(C(=O)OC)C1c1cccc(Cl)c1Cl` (stereo not drawn), 245 to 247 °C.
Turning to `O=C(CCCCl)c1cc2c(s1)SCCNC2=O`, the melting point was 124 to 125 °C.
`CCc1[nH]n(C2CCCC2)c2nc(Cc3ccc(OC(=O)c4ccc(CN(CC)CC)cc4)cc3)nc(=O)c1-2` gave a melting point of 143 to 145 °C.
To `CC(=O)OC/C(=C(\C(=O)O)c1ccc(F)cc1)c1ccc(S(C)(=O)=O)cc1` belongs 187 °C; to `COc1cc(C(=O)Nc2c(C)cc3cn(C(=O)OC(C)(C)C)nc3c2C(=O)NC(C)C)n(N2C=CC=C(Cl)C2)n1`, 161 to 162 °C; to `CCOC(=O)Cc1cccc(S(=O)(=O)c2ccccc2)c1[N+](=O)[O-]`, 105 to 106 °C.
In turn, `O=C1c2cc([N+](=O)[O-])cc3cc([N+](=O)[O-])cc(c23)C(=O)N1O` gave a melting point of 317 to 320 °C.
In the case of `CONC(=O)Nc1ccc(-c2sc3c(c2CN(C)C(C)(C(=O)O)c2ccccc2)c(=O)n(-c2ccccc2)c(=O)n3Cc2c(F)cccc2F)cc1` (stereo not drawn), the melting point is 147 to 149 °C.
With `O=c1[nH]c(=S)c2[nH]cnc2n1-c1ccccc1`, the melting point is greater than 290 °C.
Consider `C=CCN1C(=O)NCC1c1ccc(OC)c(OC2CC3CCC2C3)c1` (stereo not drawn), for which the melting point fell in the range of 110 to 113 °C.
The molecule `N#Cc1c(OCCOc2ccccc2)cccc1[N+](=O)[O-]` had a melting point of 129 to 138 °C.
To `CC(=O)OC1(C(=O)COC(=O)c2ccccc2)CCC2C3CC(C)C4=CC(=O)C=CC4(C)C3C(O)CC21C` (stereo not drawn) belongs 136 to 138 °C; to `OCc1ccc(OCc2ccccc2)c2c1OCCO2`, 106 °C; to `Cc1c(Cl)ccc([N+](=O)[O-])c1N`, 164 to 165 °C.
Then `COc1ccc(-c2nc(C)c(C(N)=O)s2)cc1`, with 180 °C; and `FC(F)(F)c1ccc(-c2nocc2CCl)cc1`, with 84 to 85 °C; and `O=[N+]([O-])c1cc(CCO)c(NCCO)c([N+](=O)[O-])c1`, with 115 °C.
Molecule `Cc1nc2c(N)nc3c(c2n1CC(C)C)CCCC3` displayed a melting point of 170 to 172 °C.
With `O=C(O)C(Cc1ccc(C(F)(F)F)cc1Br)C(=O)O`, the melting point was 80 to 82 °C.
`COc1cc(-c2nc3ccc(OCCN4CCCC4)cc3n2Cc2ccccc2C(F)(F)F)cc(OC)c1OC` had a melting point of 143 °C.
Molecule `CC1CCc2c(cc(-c3ccccc3)n2-c2ccc(O)c(C(=O)O)c2)C1` (stereo not drawn) had a melting point of 213 to 215 °C.
The molecule `CCn1ncc2c1ncc1c(Cl)nc3cc(C)nn3c12` showed a melting point of 179 to 180 °C.
Regarding `CCc1cnc(C2=NC(C)(C(C)C)C(=O)N2)c(C(=O)NCCCCCC(=O)OC)c1` (stereo not drawn), the melting point was 101 to 103 °C.
Then `CCCCc1nc(Cl)c(CC(=O)O)n1Cc1ccc([N+](=O)[O-])cc1`, with 207 to 210 °C; and `CNc1c(Cl)cc(C(=O)NCC2CCN(CCCOC)CC2)c2nccn12`, with 125 °C.
`NNC(=O)c1ccc2oc3ccccc3c2c1`: the melting point is 216 to 218 °C.
The molecule `O=C1CCCCc2cc(I)ccc2N1` gave a melting point of 207 to 208 °C.
For the molecule `CC(=O)OC(CCCCl)C(=O)OCc1ccccc1` (stereo not drawn), the melting point lay within 40 to 41 °C.
Then `O=c1oc(-c2ccc(OCC3CCCCC3)cc2)cc(O)c1SCCc1ccccc1`, with 130 to 132 °C.
As for `COC(=O)CC(C(=O)OC)C(=O)c1ccccc1OC` (stereo not drawn), the melting point lay in the range of 75 to 76 °C.
`O=C(O)C1CCc2c(c3cc(F)ccc3n2C(=O)c2ccc(F)cc2)C1` (stereo not drawn) registered a melting point of 195 to 196 °C.
The molecule `CC(CCO)c1ccc(-c2ccccc2)c(F)c1` (stereo not drawn) registered a melting point of 72 °C.
`CCOC(=O)C=Cc1ccc(CCNS(=O)(=O)c2ccc(Cl)cc2)cc1` returned a melting point of 97 to 98 °C.
`COc1ccc(CNc2nnc(-c3ccc(C(F)(F)F)cc3)cc2C(F)(F)F)cc1` yielded a melting point of 101 to 103 °C.
`CCCCn1c(=O)c2c(ncn2S(=O)(=O)c2cccc3ccccc23)n(CCCC)c1=O` showed a melting point of 135 to 136 °C.
With `O=C(O)CC1Cc2ccc(OCc3ccccc3)cc2C1` (stereo not drawn), the melting point lay in the range of 127 to 129 °C.
`COC(=O)Nc1nc2ccc(Oc3ccccn3)cc2[nH]1` gave a melting point of 246 to 253 °C.
As for `CCCCCCCCCCCCCCCCCCNC(=O)C(=O)Nc1ccc(O)cc1`, the melting point was determined as 192 °C.
As for `CC1CCC(N(CC2CCCC(CN(C(=O)Nc3ccc(N(C)C)cc3)C3CCC(C)CC3)C2)C(=O)Nc2ccc(N(C)C)cc2)CC1` (stereo not drawn), the melting point fell in the range of 106 to 110 °C.
For the molecule `COc1cc(/C=C/C(=O)C#CCO)cc(OC)c1OC`, the melting point is 113 to 115 °C.
To `CC(C)(C)c1nc2cc(N3CCSCC3)c(N)cc2s1` belongs 170 to 175 °C.
Then `Cc1ccc(F)cc1C(=O)Nc1ccc(C(=O)N2Cc3ccnn3Cc3ccccc32)c(Cl)c1`, with 137 to 140 °C; and `O=C(Cc1cccnc1)Nc1cccc(-c2ccnc3c(C(=O)c4cccs4)cnn23)c1`, with greater than 200 °C.
Turning to `O=Cc1cc2ccc3c4ccccc4ccc3c2s1`, the melting point was 209 to 210 °C.
For `CC1(C)CC(=C(c2ccc(O)cc2)c2ccc(OCC(=O)O)cc2)CC(C)(C)C1`, the melting point lay within 163 to 164 °C.
`C/C(=C\c1ccc(C(=O)OC(C)C)cc1)c1ccc2c(c1)C(C)(C)CCC2(C)C` showed a melting point of 119 to 120 °C.
Then `COc1ccc(C(CCCCl)=NNC(N)=S)cc1`, with 137 to 140 °C.
